Data published in paper PMC10179701, “Towards Protection of Nucleic Acids from Herbicide Attack: Self-Assembly of Betaines Based on Pillar[5]arene with Glyphosate and DNA” (International Journal of Molecular Sciences, 2023).

Target: DNA from salmon sperm
Experiment: UV-Vis spectrophotometric titration of (pillar[5]arene-DNA) associates with GIS
Format: binding
Details: 1:1 composition, Tris-HCl buffer, CPA 3 × 10^–6 M, CDNA 2.5 × 10^–7 M, GIS 1:0.3 to 1:10
Text: It is well known that water-soluble derivatives of pillar[5]arene can applicate as antidotes for various drugs. The interaction of GIS with DNA with a logarithm of the association constant of 4.92 was shown. […] In this regard, a hypothesis about the possibility of using the synthesized macrocycles as a glyphosate antidote for DNA protection was proposed. Therefore, the behavior of the associate (macrocycle-DNA) with GIS was studied by UV-Vis spectroscopy to test the hypothesis above. First, a solution of DNA (2.5 × 10^–7 M) was added to the macrocycle (1–4) solution (3 × 10^–6 M). Then the herbicide solution (CGIS = 3 × 10^–6 M) was added to the resulting associate, and the absorption spectrum of the resulting ternary system was recorded. […]
Further, the interaction of the (pillar[5]arene–DNA) associated with GIS was quantified (Figure 7c,d and Figure S28). […] The effective association constants of the (macrocycle-DNA)-GIS associates of 1:1 composition were calculated (Table 2). […]
buffer solution. The UV spectra of the solutions were then recorded. The stability constant of complex was calculated by Bindfit. […]
volume of 3 mL with Tris‐HCl buffer solution. The UV spectra of the solutions were then recorded. The stability constant of each complex was calculated by Bindfit. […]
stability constant of complex was calculated by Bindfit. […]

SMILES: C[N+](C)(CCCNC(=O)COc1cc2c(OCC(=O)NCCC[N+](C)(C)CC(=O)N[C@@H](Cc3ccccc3)C(=O)[O-])cc1Cc1cc(OCC(=O)NCCC[N+](C)(C)CC(=O)N[C@@H](Cc3ccccc3)C(=O)[O-])c(cc1OCC(=O)NCCC[N+](C)(C)CC(=O)N[C@@H](Cc1ccccc1)C(=O)[O-])Cc1cc(OCC(=O)NCCC[N+](C)(C)CC(=O)N[C@@H](Cc3ccccc3)C(=O)[O-])c(cc1OCC(=O)NCCC[N+](C)(C)CC(=O)N[C@@H](Cc1ccccc1)C(=O)[O-])Cc1cc(OCC(=O)NCCC[N+](C)(C)CC(=O)N[C@@H](Cc3ccccc3)C(=O)[O-])c(cc1OCC(=O)NCCC[N+](C)(C)CC(=O)N[C@@H](Cc1ccccc1)C(=O)[O-])Cc1cc(OCC(=O)NCCC[N+](C)(C)CC(=O)N[C@@H](Cc3ccccc3)C(=O)[O-])c(cc1OCC(=O)NCCC[N+](C)(C)CC(=O)N[C@@H](Cc1ccccc1)C(=O)[O-])C2)CC(=O)N[C@@H](Cc1ccccc1)C(=O)[O-] [Compound 4, 4,8,14,18,23,26,28,31,32,35-Decakis-[(N-[3’-dimethyl({oxidocarbonyl[S-benzyl]methyl}aminocarbonylmethyl)ammonio]propyl)aminocarbonylmethoxy]-pillar[5]arene]
- lgKa of (pillar[5]arene-DNA) associate with GIS: decrease in lgKa by more than an order of magnitude
- lgKa of (pillar[5]arene-DNA) associate with GIS (listed as betaine pillar[5]arene containing fragments of L-Phe): 3.60
